From patent US20120165319A1, “INHIBITORS OF INTERLEUKIN-1 BETA CONVERTING ENZYME” (VERTEX PHARMACEUTICALS INCORPORATED, priority 1995, published 2012)
Like-named read-outs stand apart in the source and are kept apart here.

Assays:
IL-1β, human whole blood = assay: Whole blood assay for IL-1β production; format: cell-based; details: Homo sapiens, Table 17; read-out: Whole human blood IC50
Summary of the method: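 IL-1β was quantified by ELISA in plasma diluted 1:200. The plasma came from EDTA-anticoagulated human whole blood incubated at 30 °C for 16-18 h with LPS (final 5.0 ng/ml) plus a saline serial dilution of compound. Controls were no-LPS, no-inhibitor and highest-vehicle.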

[1] = tested on: IL-1β, human peripheral blood mononuclear cells (PBMC); assay: PBMC cell assay: IL-1β assay with human PBMC or enriched adherent mononuclear cells, LPS-stimulated; format: cell-based; details: Homo sapiens, PBMC, Table 17
Summary of the method: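 Mature IL-1β is measured by ELISA in supernatants after 16–18 hr at 37 °C, 5% CO2, with LPS (5 ng/ml final) and test compound (0.1% DMSO final). Cells are human PBMC (6×10^6 cells/ml) or plate-adherent mononuclear cells (2.5−3.0×10^5 per well), and the 5–6 compound concentrations span the ICE Ki.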

[2] = tested on: IL-1β production, LPS-challenged mice; assay: In vivo acute assay for efficacy as anti-inflammatory agent: LPS-induced IL-1β production in mice; design: species or system mouse; details: Mus musculus, po, LPS challenged mice, compound PO, 50 mg/kg, read-out: percent inhibition of IL-1β production
Summary of the method: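 Serum IL-1β was measured by ELISA 7 h after an IP dose of 20 mg/kg LPS in CD1 mice, n=6 per group. Compounds in olive oil/DMSO/ethanol 90:5:5 were injected IP 1 h post-LPS (some analogs were dosed at challenge), and separate groups received 50 mg/kg by oral gavage.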

ICE = target: T1, ICE (Homo sapiens, UniProt P29466); assay: Enzyme assay with UV-visible substrate (visible ICE assay, Succinyl-Tyr-Val-Ala-Asp-pNitroanilide); format: biochemical
T1 sequence (P29466 120-297 limits assumed): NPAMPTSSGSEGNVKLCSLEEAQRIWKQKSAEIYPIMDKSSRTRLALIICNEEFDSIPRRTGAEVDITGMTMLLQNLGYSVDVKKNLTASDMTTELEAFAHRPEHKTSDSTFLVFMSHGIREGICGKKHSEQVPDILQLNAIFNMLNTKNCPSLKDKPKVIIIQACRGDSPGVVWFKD
T1 sequence (P29466 317-404 limits assumed): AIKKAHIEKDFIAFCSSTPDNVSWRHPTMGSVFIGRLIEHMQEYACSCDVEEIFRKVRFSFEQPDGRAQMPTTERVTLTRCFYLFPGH
Summary of the method: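 Buffer, ICE and inhibitor in DMSO are combined and held 15 min at room temperature. Succinyl-Tyr-Val-Ala-Asp-pNA is then added and absorbance at 405-603 nm tracked for 20 min at 37° C.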

[3] = In vivo rat clearance assay; details: plasma, iv
Description: In Vivo Rat Clearance Assay
Cannulations of the jugular and carotid vessels of rats under anesthesia were performed one day prior to the pharmacokinetic study. M. J. Free, R. A. Jaffee; ‘Cannulation techniques for the collection blood and other bodily fluids’; in: Animal Models; p. 480-495; N. J. Alexander, Ed.; Academic Press; (1978). Drug (10 mg/mL) was administered via the jugular vein in a vehicle usually consisting of: propylene glycol/saline, containing 100 mM sodium bicarbonate in a 1:1 ratio. Animals were dosed with 10-20 mg drug/kg and blood samples were drawn at 0, 2, 5, 7, 10, 15, 20, 30, 60, and 90 minutes from an indwelling carotid catheter. The blood was centrifuged to plasma and stored at −20° C. until analysis. Pharmacokinetic analysis of data was performed by non-linear regression using standard software such as RStrip (MicroMath Software, UT) and/or Pcnonlin (SCI Software, NC) to obtain clearance values.
Rat plasma was extracted with an equal volume of acetonitrile (containing 0.1% TFA). Samples were then centrifuged at approximately 1,000×g and the supernatant analyzed by gradient HPLC. A typical assay procedure is described below.
A standard curve was run at 20, 10, 5, 2 and 1 μg/mL concentrations.

[4] = 0 h, administered 0 h relative to time of LPS challenge
[5] = 2 h, administered −2 h relative to time of LPS challenge

| Compound | melting point | Ki (ICE; Table 17) [nM] | clearance ([3]; Table 17) [mL/min/kg] | IC50 (IL-1β, human whole blood) [nM] | IC50 [1] [nM] | inhibition at 50 mg/kg [2, 4] [%] | inhibition at 50 mg/kg [2, 5] [%] | clearance ([3]; 10-20 mg/kg) [mL/min/kg] | inhibition at 50 mg/kg ([2]; 1 h, administered +1 h relative to time of LPS challenge) [%] | Ki (ICE; Table 5) [nM] |
| --- | --- | --- | --- | --- | --- | --- | --- | --- | --- | --- |
| CC(=O)Nc1ccc(C(=O)N[C@H]2CCC(=O)N3CCC[C@@H](C(=O)N[C@H]4CC(=O)OC4OCc4ccccc4)N3C2=O)cc1 (stereo partly drawn) [Compound 213x, [1S,9S(2RS,3S)]9-[4-(Acetylamino)benzoylamino]-N-(2-benzyloxy-5-oxo-tetrahydrofuran-3-yl)-6,10-dioxo-1,2,3,4,7,8,9,10-octahydro-6H-pyridazino[1,2-a][1,2]diazepine-1-carboximide] | 150 to 170 °C |  |  | 2500 | 4500 | 78 | 0 |  |  |  |
| O=C[C@H](CC(=O)O)NC(=O)[C@@H]1CCCN2C(=O)CC[C@H](NC(=O)c3ccc(O)cc3)C(=O)N12 [Compound 456] | > 260 °C |  |  |  |  | 69 | 41 | 12.7 | 56 | 4.5 |
| CCOC1OC(=O)C[C@@H]1NC(=O)[C@@H]1CCCN2C(=O)CC[C@H](NC(=O)c3cc4ccccc4[nH]3)C(=O)N12 (stereo partly drawn) [Compound 550o, [1S,9S(2RS,3S)]6,10-Dioxo-N-(2-ethoxy-5-oxotetrahydrofuran-3-yl)-9-(2-indoloylamino)-1,2,3,4,7,8,9,10-octahydro-6H-pyridazino[1,2-a][1,2]diazepine-1-carboxamide] | 155 to 170 °C |  |  | 3000 | 450 | 64 | 19 |  |  |  |
| COc1ccc(C(=O)NN2CCC(=O)N3CCC[C@@H](C(=O)N[C@H](C=O)CC(=O)O)N3C2=O)cc1 [Compound 1052, [3S(4S)]3-[6,10-Dioxo-7-(4-methoxybenzoylamino)-octahydro-6H-pyridazino[1,2-a][1,2,4]triazepine-4-carboxamido]-4-oxobutanoic acid] | 138 to 142 °C | 100 | 16 |  | 2500 |  |  |  |  |  |
| O=C[C@H](CC(=O)O)NC(=O)[C@@H]1CCCN2C(=O)CCN(NC(=O)c3ccc(O)cc3)C(=O)N12 [Compound 1056, [3S(4S)]3-[6,10-Dioxo-7-(4-hydroxybenzoylamino)-1,2,3,4,7,8,9,10-octahydro-6H-pyridazino[1,2-a][1,2,4]triazepine-4-carboxamido]-4-oxobutanoic acid] | > 300 °C | 170 | 17 |  |  |  |  |  |  |  |
| O=C[C@H](CC(=O)O)NC(=O)[C@@H]1CCCN2C(=O)CCN(NC(=O)Cc3ccccc3)C(=O)N12 [Compound 1095, [3S(4S)]3-(6,10-Dioxo-1,2,3,4,7,8,9,10-octahydro-7-phenylacetylamino-6H-pyridazino[1,2-a][1,2,4]triazepine-4-carboxamido)-4-oxobutanoic acid] | 180 to 186 °C | 360 | 28 |  | 6000 |  |  |  |  |  |
| O=C1C[C@H](NC(=O)[C@@H]2CCCN3C(=O)CC[C@H](NC(=O)c4ccccc4)C(=O)N23)C(OC2CCCC2)O1 (stereo partly drawn) [Compound 2100l, [1S,9S(2RS,3S)]9-Benzamido-N-(2-cyclopentyloxy-5-oxo-tetrahydrofuran-3-yl)-6,10-dioxo-1,2,3,4,7,8,9,10-octahydro-6H-pyridazino[1,2-a][1,2]diazepine-1-carboxamide] | 172 to 180 °C |  |  | 2200 | 750 | 28 | 52 |  |  |  |

Further lines, with some results ahead:

| melting point | Ki (ICE; Table 17) [nM] | clearance ([3]; Table 17) [mL/min/kg] | Compound | IC50 (IL-1β, human whole blood) [nM] | IC50 [1] [nM] | inhibition at 50 mg/kg [2, 4] [%] | inhibition at 50 mg/kg [2, 5] [%] | clearance ([3]; 10-20 mg/kg) [mL/min/kg] | inhibition at 50 mg/kg ([2]; 1 h, administered +1 h relative to time of LPS challenge) [%] | Ki (ICE; Table 5) [nM] |
| --- | --- | --- | --- | --- | --- | --- | --- | --- | --- | --- |
| 126 to 130 °C (dec.) | 2600 |  | O=C[C@H](CC(=O)O)NC(=O)[C@@H]1CCCN2C(=O)CCN(NS(=O)(=O)c3ccc4ccccc4c3)C(=O)N12 [Compound 265a, [3S(4 S)]3-[6,10-Dioxo-7-(2-naphthalenesulfonyl)amino-1,2,3,4,7,8,9,10-octahydro-6H-pyridazino[1,2-a][1,2,4]triazepine-4-carboxamido]-4-oxobutanoic acid] |  | 25000 |  |  |  |  |  |
| 157 to 162 °C | 1200 | 24 | O=C[C@H](CC(=O)O)NC(=O)[C@@H]1CCCN2C(=O)CCN(NC(=O)Nc3ccccc3)C(=O)N12 [Compound 265f, [3S(4S)]3-[6,10-Dioxo-1,2,3,4,7,8,9,10-octahydro-7-(3-phenylureido)-6H-pyridazino[1,2-a][1,2,4]triazepine-4-carboxamido]-4-oxobutanoic acid] |  |  |  |  |  |  |  |
| 105 to 130 °C |  | 86 | COC(=O)N[C@H]1CCC(=O)N2CCC[C@@H](C(=O)N[C@@H](CC(=O)O)C(=O)CSc3nnnn3-c3ccccc3)N2C1=O [Compound 280c, [3S(1S,9S)]3-[6,10-Dioxo-9-(methoxycarbonylamino)-1,2,3,4,7,8,9,10-octahydro-6H-pyridazino[1,2-a][1,2]diazepine-1-carboxamido]-4-oxo-5-[5-(1-phenyltetrazolyl)-thio]pentanoic acid] |  | 10000 |  |  |  |  |  |
| 90 to 105 °C |  | 50 | COC(=O)N[C@H]1CCC(=O)N2CCC[C@@H](C(=O)N[C@@H](CC(=O)O)C(=O)COc3cccnc3)N2C1=O [Compound 283c, [3S(1S,9S)]3-[6,10-Dioxo-9-(methoxycarbonylamino)-1,2,3,4,7,8,9,10-octahydro-6H-pyridazino[1,2-a][1,2]diazepine-1-carboxamido]-4-oxo-5-(3-pyridinyloxy)pentanoic acid] |  | 4000 |  |  |  |  |  |
| 140 to 180 °C | 2300 |  | O=C(O)C[C@H](NC(=O)[C@@H]1CCCN2C(=O)CC[C@H](NC(=O)c3ccccc3)C(=O)N12)C(=O)Cn1cnccc1=O [Compound 510d, [3S(1S,9S)]3-[6,10-Dioxo-1,2,3,4,7,8,9,10-octahydro-9-(phenycarbonylamino)-6H-pyridazino[1,2-a][1,2]diazepine-1-carboxamido]-4-oxo-5-{2-[4(3H)-pyrimidone]}pentanoic acid] |  | > 20000 |  |  |  |  |  |
